From patent publication US9012431B2, “Boron-containing small molecules as anti-inflammatory agents” (Anacor Pharmaceuticals, Inc., priority 2008, dated 2015)
Structures can show the parent of a compound that is named as a salt.

Columns and labels:
[1] = system: T1, PDE4 partially purified from human U-937 myeloid leukemia cells; test: PDE4 Assay (enzyme from U-937 cells, [3H]cAMP); format: biochemical; conditions: PDE4 from U-937 cells, Tris buffer pH 7.5, 20 minutes at 25° C.
T1 construct: PDE4 partially purified from human U-937 myeloid leukemia cells was used

IFN-γ = test: Cytokine assay, IFN-γ release from PBMC; format: cell-based; conditions: human PBMC, 20 ug/mL PHA, supernatant at 24 hours
Procedure, shortened: (§1)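 Using previously frozen human PBMC resuspended in medium of RPMI 1640 supplemented with 10% FBS, test article at 10, 1, 0.1 and 0.01 μM was evaluated in triplicate; DMSO stock was 10 mM.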

IL-5 = test: Cytokine assay, IL-5 release from PBMC; format: cell-based; conditions: human PBMC, 20 ug/mL PHA, supernatant at 48 hours
Procedure, shortened: as §1

[2] = system: CD-1 (Crl.) derived male mice; test: Phorbol Ester Induced Mouse Ear Edema Model; format: in vivo; conditions: topical, 6 h; for inhibition in vivo at 1 mg: 1 mg/ear × 2 topical; for inhibition in vivo at 3 mg: 3 mg/ear × 2 topical; for inhibition in vivo at 0.02 mg: 0.02 mg/ear × 2 topical; for inhibition in vivo at 0.06 mg: 0.06 mg/ear × 2 topical; for inhibition in vivo at 0.2 mg: 0.2 mg/ear × 2 topical
Method: 1. In Vivo Anti-Inflammation Activity in Phorbol Ester Induced Mouse Ear Edema Model
[…] Dexamethasone (1 mg/ear×2) used as the positive control was administered topically to test animals using the same application schedule. Ear swelling was then measured by a Dyer model micrometer gauge at 6 hours after PMA application as an index of inflammation. Percent inhibition was calculated according to the formula: [(Ic−It)/Ic]×100%, where Ic and It refer to increase of ear thickness (mm) in control and treated mice, respectively.

IL-10 = test: Cytokine assay, IL-10 release from PBMC; format: cell-based; conditions: human PBMC, 20 ug/mL PHA, supernatant at 48 hours
Procedure, shortened: as §1

IL-2 = test: Cytokine assay, IL-2 release from PBMC; format: cell-based; conditions: human PBMC, 20 ug/mL PHA, supernatant at 24 hours
Procedure, shortened: as §1

TNF-α = test: Cytokine assay, TNF-α release from PBMC; format: cell-based; conditions: Homo sapiens, PBMC, 24 h, 1 μg/mL LPS, supernatant at 24 hours
Procedure, shortened: as §1

[3] = vehicle not given, ear swelling 6 hours after PMA
[4] = 95% Ethanol, ear swelling 6 hours after PMA
[5] = Acetone:Ethanol/1:1, ear swelling 6 hours after PMA

| Compound | IC50 [1] [µM] | IC50 (IFN-γ) [µM] | IC50 (IL-5) [µM] | IC50 (IL-10) [µM] | IC50 (IL-2) [µM] | IC50 (TNF-α) [µM] | further results |
| --- | --- | --- | --- | --- | --- | --- | --- |
| CCCOC(=O)c1ccc(Oc2ccc3c(c2)COB3O)cc1 [D73, 4-(1-Hydroxy-1,3-dihydro-benzo[c][1,2]oxaborol-5-yloxy)-benzoic acid propyl ester] | < 1 | 4 to 10 | 1 to 4 | > 10 | 1 to 4 | 1 to 4 | inhibition in vivo at 1 mg [2, 3]: 30 to 60%; inhibition in vivo at 3 mg [2, 3]: 60 to 90% |
| O=Cc1ccc(Oc2ccc3c(c2)COB3O)nc1 [D69, 6-(1-Hydroxy-1,3-dihydrobenzo[c][1,2]oxaborol-5-yloxy)nicotinaldehyde] | < 1 | 1 to 4 |  |  | 1 to 4 | 1 to 4 | inhibition in vivo at 1 mg [2, 3]: 30 to 60% |
| COCCNc1ccc(C#N)c(Oc2ccc3c(c2)COB3O)n1 [D101, 2-(1-Hydroxy-1,3-dihydro-benzo[c][1,2]oxaborol-5-yloxy)-6-(2-methoxy-ethylamino)-nicotinonitrile] | < 1 | < 1 | < 1 | 1 to 4 | < 1 | < 1 | inhibition in vivo at 0.8 mg ([2]; 0.8 mg/ear × 2 topical, 95% Ethanol, ear swelling 6 hours after PMA): < 30%; inhibition in vivo at 2.4 mg ([2]; 2.4 mg/ear × 2 topical, 95% Ethanol, ear swelling 6 hours after PMA): < 30% |
| CN(C)c1nc(Oc2ccc3c(c2)COB3O)ccc1C#N [D95, 2-Dimethylamino-6-(1-hydroxy-1,3-dihydro-benzo[c][1,2]oxaborol-5-yloxy)-nicotinonitrile] | < 1 | < 1 | < 1 | 1 to 4 | < 1 | < 1 | inhibition in vivo at 0.02 mg [2, 4]: < 30%; inhibition in vivo at 0.06 mg [2, 4]: < 30%; inhibition in vivo at 0.2 mg [2, 4]: < 30% |
| N#Cc1ccc(Oc2ccc3c(c2)COB3O)cc1O [D10, 5-(4-Cyano-3-hydroxyphenoxy)-1,3-dihydro-1-hydroxy-2,1-benzoxaborole] | 1 to 4 | 4 to 10 | 4 to 10 | 1 to 4 | 4 to 10 | < 1 | inhibition in vivo at 1 mg [2, 5]: 60 to 90% |
| CNc1nc(Oc2ccc3c(c2)COB3O)ccc1C#N [D110, 6-(1-Hydroxy-1,3-dihydro-benzo[c][1,2]oxaborol-5-yloxy)-2-methylamino-nicotinonitrile] | < 1 | < 1 | < 1 | > 10 | < 1 | < 1 | inhibition in vivo at 0.02 mg [2, 4]: < 30%; inhibition in vivo at 0.06 mg [2, 4]: < 30%; inhibition in vivo at 0.2 mg [2, 4]: < 30% |
| COCCOc1nc(Oc2ccc3c(c2)COB3O)ccc1C#N [D86] | < 1 | < 1 | < 1 | < 1 | < 1 | < 1 | inhibition in vivo at 0.063 mg ([2]; 0.063 mg/ear × 2 topical, 95% Ethanol, ear swelling 6 hours after PMA): < 30%; inhibition in vivo at 0.21 mg ([2]; 0.21 mg/ear × 2 topical, 95% Ethanol, ear swelling 6 hours after PMA): < 30%; inhibition in vivo at 0.63 mg ([2]; 0.63 mg/ear × 2 topical, 95% Ethanol, ear swelling 6 hours after PMA): < 30%; inhibition in vivo at 3 mg [2, 4]: < 30% |
| CN1CCN(C(=O)COc2cc(C#N)ccc2Oc2ccc3c(c2)COB3O)CC1 [D29, 4-(2-(5-cyano-2-(1-hydroxy-1,3-dihydrobenzo[c][1,2]oxaborol-5-yloxy)phenoxy)acetyl)-1-methylpiperazine hydrochloride] | < 1 | < 1 | < 1 | > 10 | < 1 | < 1 | inhibition in vivo at 1 mg [2, 5]: < 30% |
| CN(CCO)c1ccc(C#N)c(Oc2ccc3c(c2)COB3O)n1 [D98, 2-(1-hydroxy-1,3-dihydro-benzo[c][1,2]oxaborol-5-yloxy)-6-[(2-hydroxy-ethyl)-methyl-amino]-nicotinonitrile] | < 1 | < 1 | < 1 | < 1 | < 1 | < 1 | inhibition in vivo at 0.02 mg [2, 4]: < 30%; inhibition in vivo at 0.06 mg [2, 4]: < 30%; inhibition in vivo at 0.2 mg [2, 4]: 30 to 60% |
| N#Cc1ccc(Oc2ccc3c(c2)COB3O)c(O)c1 [D14, 5-(4-Cyano-2-hydroxyphenoxy)-1,3-dihydro-1-hydroxy-2,1-benzoxaborole] | < 1 | < 1 | < 1 | 1 to 4 | < 1 | < 1 | inhibition in vivo at 0.05 mg ([2]; 0.05 mg/ear × 2 topical, 95% Ethanol, ear swelling 6 hours after PMA): < 30%; inhibition in vivo at 0.17 mg ([2]; 0.17 mg/ear × 2 topical, 95% Ethanol, ear swelling 6 hours after PMA): < 30%; inhibition in vivo at 0.51 mg ([2]; 0.51 mg/ear × 2 topical, 95% Ethanol, ear swelling 6 hours after PMA): < 30%; inhibition in vivo at 1 mg [2, 4]: < 30%; inhibition in vivo at 1 mg [2, 5]: < 30% |
| N#Cc1ccc(Oc2ccc3c(c2)COB3O)c(OCc2ccccn2)c1 [D31, 2-((5-cyano-2-(1-hydroxy-1,3-dihydrobenzo[c][1,2]oxaborol-5-yloxy)phenoxy)methyl)pyridine hydrochloride] |  |  |  |  |  | 1 to 4 | inhibition in vivo at 1 mg [2, 5]: 30 to 60% |
| CCNC(=O)c1ccc(Oc2ccc3c(c2)COB3O)nc1 [D63, N-Ethyl-6-(1-hydroxy-1,3-dihydrobenzo[c][1,2]oxaborol-5-yloxy) nicotinamide] | < 1 | 1 to 4 | 1 to 4 | 1 to 4 | < 1 | < 1 | inhibition in vivo at 1 mg [2, 5]: < 30% |
| N#Cc1ccc(Oc2ccc3c(c2)COB3O)c(CO)c1 [D24, 5-[4-Cyano-2-(hydroxymethyl)phenoxy]-1,3-dihydro-1-hydroxy-2,1-benzoxaborole] |  |  |  |  |  | 1 to 4 | inhibition in vivo at 1 mg [2, 5]: 60 to 90% |
| CCOC(=O)c1ccc(Oc2ccc3c(c2)COB3O)cc1Cl [D57, 5-(3-Chloro-4-ethoxycarbonylphenoxy)-1-hydroxy-2,1-benzoxaborole] | < 1 | 1 to 4 | < 1 | > 10 | < 1 | 4 to 10 |  |
| COc1nc(Oc2ccc3c(c2)COB3O)ncc1C#N [D116, 2-(1-Hydroxy-1,3-dihydro-benzo[c][1,2]oxaborol-5-yloxy)-4-methoxy-pyrimidine-5-carbonitrile] | < 1 | < 1 | < 1 | 1 to 4 | < 1 | < 1 |  |
| N#Cc1ccc(Oc2ccc3c(c2)COB3O)c(F)c1 [D84, 3-fluoro-4-(1-hydroxy-1,3-dihydrobenzo[c][1,2]oxaborol-5-yloxy)benzonitrile] | < 1 | 4 to 10 | 4 to 10 | 1 to 4 | 1 to 4 | 1 to 4 |  |
| COc1nc(Oc2ccc3c(c2)COB3O)ccc1C(N)=O [D112, 6-(1-Hydroxy-1,3-dihydro-benzo[c][1,2]oxaborol-5-yloxy)-2-methoxy-nicotinamide] | < 1 | < 1 | 1 to 4 | < 1 | < 1 | < 1 |  |
| CC(C)(C)OC(=O)COc1cc(Oc2ccc3c(c2)COB3O)ccc1C#N [D40, [2-Cyano-5-(1-hydroxy-1,3-dihydro-benzo[c][1,2]oxaborol-5-yloxy)-phenoxy]-acetic acid tert-butyl ester] | < 1 | < 1 | < 1 | < 1 | < 1 | < 1 |  |
| CCOC(=O)c1ccc(Oc2ccc3c(c2)COB3O)c(F)c1 [D51, 5-(2-Fluoro-4-ethoxycarbonylphenoxy)-1-hydroxy-2,1-benzoxaborole] | < 1 | 1 to 4 | 4 to 10 | 1 to 4 | 1 to 4 | 1 to 4 |  |
| N#Cc1ccc(Oc2ccc3c(c2)COB3O)c(CNC=O)c1 [D25, 5-[4-Cyano-2-(formylaminomethyl)phenoxy]-1,3-dihydro-1-hydroxy-2,1-benzoxaborole] | < 1 | 1 to 4 | < 1 | 1 to 4 | < 1 | 4 to 10 |  |
| CCOC(=O)c1ccc(Oc2ccc3c(c2)COB3O)c(C(F)(F)F)c1 [D54, 5-(4-Eethoxycarbonyl-2-trifluoromethylphenoxy)-1-hydroxy-2,1-benzoxaborole] | < 1 | < 1 | 1 to 4 | < 1 | < 1 | < 1 |  |
| CCOC(=O)c1cc(Cl)c(Oc2ccc3c(c2)COB3O)cc1F [D58, 5-(2-Chloro-5-fluoro-4-ethoxycarbonylphenoxy)-1-hydroxy-2,1-benzoxaborole] | < 1 | < 1 | < 1 | > 10 | < 1 | 1 to 4 |  |
